Entries after “also recorded” stand apart in the source; their conditions may differ.
Tests used:
[1] = test system: Membrane and cytosol fractions from bovine aortic endothelial cells; assay: Affinity chromatography of BAEC fractions on immobilized peptide; format: binding; set-up: key to Identification of binding partners by affinity chromatography: BAEC: ✓: Check marks indicate positive binding observed with FITC; −: a dash indicates a negative result; conditions: cell lysates
Method: (§1) Membrane and cytosol fractions from human bone marrow endothelial cells and bovine aortic endothelial cells were prepared and used to identify the components from within these fractions that bind to the peptides using affinity chromatography). […] Cell surface nucleolin is present at higher concentrations in actively dividing cells and is down regulated in cells when they become quiescent. Nucleolin is the apparent cell surface receptor of E-coli intimin-gamma. Cell bound intimin has been proposed to trigger a host cell response similar to the extension of filipodia when cells bind to laminin. […] Table 3 provides a summary of peptide-binding partners (putative receptors) identified by affinity chromatography of cell lysates.

[2] = test system: Membrane and cytosol fractions from human bone marrow endothelial cells; assay: Affinity chromatography of HBME fractions on immobilized peptide; format: binding; set-up: key to Identification of binding partners by affinity chromatography: HBME: ✓: Check marks indicate positive binding observed with FITC; −: a dash indicates a negative result; conditions: for Identification of binding partners by affinity chromatography: HBME: cell lysates
Method: as §1
Peptide Affinity Column Chromatography: Peptides identified from the phage display experiments in mouse bone and bone marrow were synthesized with an additional three-residue glycine linker and an N-terminal lysine residue. The lysine residue was used to specifically link the peptides to a support. Cell membranes from BMECs were solubilized with triton X-100. The solubilized proteins were passed through the peptide affinity column (total volume, 500 μL) followed by extensive washes with buffer. Retained proteins were eluted either with 100 mM solution of the same peptide as that immobilized on the column or with a wash of 0.1 N HCl-Glycine, pH 2.2. The eluates were analyzed by SDS PAGE and proteins observed in the gels were identified by LC/MS/MS.

[3] = test system: human bone marrow endothelial cells (HBME); assay: Peptide binding to HBME cells in culture (Avidin-FITC); set-up: key: ✓: Check marks indicate positive binding observed with FITC; −: a dash indicates a negative result
Method: (§2) For localization of peptide binding to cells and tissue sections, biotinylated peptides were synthesized. Fluorescein-isothiocyanate (FITC) labeled Avidin was used to localize the peptides on cells in culture and in tissue sections in vitro by epiluminescence microscopy. In addition, the biotinylated peptides were detected at concentrations as low as 1 μM in slot blots.
(§3) Bone marrow cells isolated from mouse femur were lifted with ethylenediaminetetraacetic acid (EDTA) and trypsin, resuspended, and allowed to attach on fibronectin-coated chamber slides for Avidin-FITC staining. […] The D1 cell is a multipotential mesenchymal stem-like line that was isolated from bone marrow and shown to have the characteristics of osteoprogenitor cells. This cell line has been well established and used successfully in several in vitro and in vivo studies in our laboratory. Peptide binding to human bone marrow endothelial cells (HBME) and bovine aortic endothelial cells (BAEC) in culture was also tested using the same procedure.

[4] = test system: Bone marrow cells isolated from mouse femur; assay: Peptide binding to bone marrow cells in culture (Avidin-FITC); set-up: key to Localization of peptide binding: Marrow (cells in culture): ✓: Check marks indicate positive binding observed with FITC; −: a dash indicates a negative result; conditions: for Localization of peptide binding: Marrow (cells in culture): FITC; for Binding to adherent cells from bone marrow blowouts: fibronectin-coated chamber slides, Avidin-FITC staining
Method: as §2, §3

[5] = test system: bone marrow derived mesenchymal stem cells; assay: Microarray gene expression analysis of peptide-treated mesenchymal stem cells; format: cell-based; conditions: 100 μM/ml peptide, day 7, microarray
Method: For gene analysis, the bone marrow derived mesenchymal stem cells were seeded at 95,000 cells per well in a 6 well plate and maintained in culture media containing 100 μM/ml of each of the 13 peptides. The media were changed every three days. The cells were harvested at day 7, total RNA isolated using the Qiagen RNeasy kit and quantified with a spectrophotometer. After initial screening of the genes with real-time PCR, four peptides were chosen for microarray analysis: L13, L19, R1, and R3 (SEQ ID NOs: 8, 10, 11, and 13, respectively).

D1 cells = assay: Peptide binding to D1 bone marrow mesenchymal cells; conditions: for Binding to D1 cells: FIG. 4; for Binding to cells from the skeleton in vitro: mesenchymal cells from bone marrow (D1), or human bone marrow endothelial cells, avidin-FITC probe
Text: as §3
The peptides were ranked based on the frequency with which they occurred in the plaques from which DNA was prepared and sequenced. Four of the sequences (L13, L19, R1, and R3) were synthesized as biotinylated peptide or as the control non biotinylated version of the sequence. […] The cells used in these experiments were mesenchymal cells from bone marrow (D1), or human bone marrow endothelial cells. An avidin-FITC probe detected the biotinylated peptide in areas of the cells in culture representing either extrusions from the cells or at the end of cell processes; structures reminiscent of adhesion plaques or footprints.

[6] = test system: prostate cancer cells (CaP); assay: Prostate cancer (CaP) cell adhesion to BMEC, cell line not distinguished; format: cell-based; conditions: for Effect on CaP cell adhesion to BMEC: LNCaP compared to C4-2, FIG. 8, preliminary results
Method: FIG. 8 is a graphic representation of the effects of various peptides on altering cellular adhesion to BMEC cells in vitro. LNCaP cells were compared directly to C4-2 cells for the ability of specific phage-derived peptides to alter cellular adhesion to BMEC cells in vitro. Adhesion was measured at […]. C=control (no peptide). The ordinate represents percent of acid precipitable counts bound and the abscissa indicated the cells treated and the peptides used.
The phage-derived bone-targeting peptides isolated by biopanning were tested for their ability to alter the adhesion of prostate cancer cells to a human bone marrow endothelial cell line (see FIG. 8). In this assay, LNCaP cells were compared directly to the more metastatic, bone colonizing derivative, C4-2.
This observation will be examined further and exploited by the aims of this proposal to identify the binding partners of nucleolin in prostate cancer cells as well as to investigate bone tropic peptides as potential inhibitors of prostate cancer metastasis.

| Substance | Identification of binding partners by affinity chromatography: BAEC [1] | Identification of binding partners by affinity chromatography: HBME [2] | Localization of peptide binding: Marrow (cells in culture) [4] | Binding to adherent cells from bone marrow blowouts [4] | Binding to D1 cells (D1 cells) | Binding to cells from the skeleton in vitro (D1 cells) | Effect on CaP cell adhesion to BMEC [6] | also measured |
| --- | --- | --- | --- | --- | --- | --- | --- | --- |
| ASN-SER-MET-ILE-ALA-HIS-ASN-LYS-THR-ARG-MET-HIS-GLY-GLY-GLY-SER (NSMIAHNKTRMHGGGS; listed as Homo sapiens) [Peptide L7] | − | − |  |  |  |  |  |  |
| SER-GLY-HIS-GLN-LEU-LEU-LEU-ASN-LYS-MET-PRO-ASN-GLY-GLY-GLY-SER (SGHQLLLNKMPNGGGS; listed as Homo sapiens) [Peptide L13] | − | ✓Nucleolin | ✓ | showed detectable binding | bind to D1 cells | found to bind cells from the skeleton | consistent suppression of CaP cell invasion that was saturated at the doses tested; also recorded: inhibits CaP cell adhesion to bone marrow endothelial cells | Localization of peptide binding: HBME [3]: ✓; Fold Change: Ameloblastin [5]: +3.73 fold; Fold Change: Cartilage link protein 1 [5]: +2.00 fold; Fold Change: Eph receptor A5 [5]: +4.92 fold; Fold Change: Fibronectin 1 [5]: −2.64 fold; Fold Change: Hypothetical protein MGC28705 [5]: +4.59 fold; Fold Change: Neural cell adhesion molecule 2 [5]: +6.96 fold; Fold Change: Procollagen, type I, alpha 1 [5]: +3.03 fold; Fold Change: RIKEN cDNA 2410129E14 gene [5]: +3.03 fold; Fold Change: Syndecan 4 [5]: +3.03 fold; Fold Change: Thyroid hormone receptor alpha [5]: −1.23 fold; Fold Change: v-raf-1 leukemia viral oncogene 1 [5]: +2.46 fold; Binding partner from HBME / bone marrow endothelial cells ([2]; biotinylated peptide immobilized on avidin-agarose): nucleolin was the major component that binds; Concentrations at which peptide inhibits prostate cancer cell adhesion to BMEC ([6]; 50 μM and 100 μM tested): at both 50 μM and 100 μm |
| ASN-TYR-SER-HIS-LEU-ARG-VAL-LYS-LEU-PRO-THR-PRO-GLY-GLY-GLY-SER (NYSHLRVKLPTPGGGS; listed as Homo sapiens) [Peptide R1] |  |  | ✓ | showed detectable binding | bind to D1 cells | found to bind cells from the skeleton | did not show remarkable activity |  |

— patent US7871978B2, “Bone tropic peptides” (University of Virginia Patent Foundation, priority 2004, dated 2011)
